Earlier results in patent publication EP2322149A1, “Methods and compositions for the treatment of ischemia” (Universidad del Pais Vasco, priority 2009, dated 2011).

Legend:
[1] = molecular target: T1, P2X1 (Homo sapiens, UniProt P51575); details: read-out: IC50 P2X1; cited from earlier work
T1 sequence (P51575 1-399): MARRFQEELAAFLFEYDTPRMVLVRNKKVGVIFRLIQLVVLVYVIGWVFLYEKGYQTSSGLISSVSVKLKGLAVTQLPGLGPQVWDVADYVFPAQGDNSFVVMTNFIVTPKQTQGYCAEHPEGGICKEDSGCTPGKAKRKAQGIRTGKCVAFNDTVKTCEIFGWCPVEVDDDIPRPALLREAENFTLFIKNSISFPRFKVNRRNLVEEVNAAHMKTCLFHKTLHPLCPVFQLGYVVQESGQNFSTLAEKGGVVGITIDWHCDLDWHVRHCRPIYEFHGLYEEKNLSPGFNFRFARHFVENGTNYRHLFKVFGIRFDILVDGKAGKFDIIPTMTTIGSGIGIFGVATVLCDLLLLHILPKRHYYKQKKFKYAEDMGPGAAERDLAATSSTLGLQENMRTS

[2] = molecular target: T2, P2X2 (Homo sapiens, UniProt Q9UBL9); details: read-out: IC50 P2X2; cited from earlier work
T2 sequence (Q9UBL9 1-471): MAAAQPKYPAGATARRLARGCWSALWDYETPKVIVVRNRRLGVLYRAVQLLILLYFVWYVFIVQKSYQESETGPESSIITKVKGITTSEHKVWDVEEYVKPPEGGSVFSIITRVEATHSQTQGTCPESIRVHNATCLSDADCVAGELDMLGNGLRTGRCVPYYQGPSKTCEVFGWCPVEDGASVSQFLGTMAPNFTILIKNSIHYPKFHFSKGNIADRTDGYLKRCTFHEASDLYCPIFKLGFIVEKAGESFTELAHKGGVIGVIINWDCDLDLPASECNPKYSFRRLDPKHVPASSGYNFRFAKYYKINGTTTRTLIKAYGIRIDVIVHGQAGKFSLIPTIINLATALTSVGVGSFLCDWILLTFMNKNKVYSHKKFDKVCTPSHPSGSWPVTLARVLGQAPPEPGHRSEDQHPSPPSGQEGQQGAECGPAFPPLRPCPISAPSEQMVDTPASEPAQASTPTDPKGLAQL

[3] = molecular target: T3, P2X3 (Homo sapiens, UniProt P56373); details: read-out: IC50 P2X3; cited from earlier work
T3 sequence (P56373 1-397): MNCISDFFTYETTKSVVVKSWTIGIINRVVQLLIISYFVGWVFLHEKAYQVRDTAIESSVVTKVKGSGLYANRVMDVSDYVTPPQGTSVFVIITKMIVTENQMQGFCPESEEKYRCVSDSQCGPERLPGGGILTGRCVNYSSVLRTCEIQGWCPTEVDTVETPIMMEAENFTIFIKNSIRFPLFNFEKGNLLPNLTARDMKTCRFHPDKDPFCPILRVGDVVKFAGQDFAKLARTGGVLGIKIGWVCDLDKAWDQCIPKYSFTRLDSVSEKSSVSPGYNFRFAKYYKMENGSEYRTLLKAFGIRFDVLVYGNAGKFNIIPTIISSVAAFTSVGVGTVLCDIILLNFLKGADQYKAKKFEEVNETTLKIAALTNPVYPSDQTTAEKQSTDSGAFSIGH

[4] = molecular target: T4, P2X4 (Homo sapiens, UniProt Q99571); details: read-out: IC50 P2X4; cited from earlier work
T4 sequence (Q99571 1-388): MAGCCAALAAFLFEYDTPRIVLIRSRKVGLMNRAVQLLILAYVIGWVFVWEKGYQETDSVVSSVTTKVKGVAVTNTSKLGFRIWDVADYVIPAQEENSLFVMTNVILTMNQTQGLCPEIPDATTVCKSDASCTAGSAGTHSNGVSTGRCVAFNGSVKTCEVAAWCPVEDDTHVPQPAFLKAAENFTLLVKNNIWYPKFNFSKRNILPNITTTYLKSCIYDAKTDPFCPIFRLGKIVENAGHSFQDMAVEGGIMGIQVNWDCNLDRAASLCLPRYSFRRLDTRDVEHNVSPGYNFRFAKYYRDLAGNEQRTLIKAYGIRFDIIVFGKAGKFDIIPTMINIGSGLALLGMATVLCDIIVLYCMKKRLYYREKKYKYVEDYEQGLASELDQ

[5] = molecular target: P2X5 (Homo sapiens, UniProt Q93086); details: cited from earlier work
[6] = molecular target: P2X6 (Homo sapiens, UniProt O15547); details: read-out: IC50 P2X6; cited from earlier work
[7] = molecular target: T5, P2X7 (Homo sapiens, UniProt Q99572); details: cited from earlier work
T5 sequence (Q99572 1-595): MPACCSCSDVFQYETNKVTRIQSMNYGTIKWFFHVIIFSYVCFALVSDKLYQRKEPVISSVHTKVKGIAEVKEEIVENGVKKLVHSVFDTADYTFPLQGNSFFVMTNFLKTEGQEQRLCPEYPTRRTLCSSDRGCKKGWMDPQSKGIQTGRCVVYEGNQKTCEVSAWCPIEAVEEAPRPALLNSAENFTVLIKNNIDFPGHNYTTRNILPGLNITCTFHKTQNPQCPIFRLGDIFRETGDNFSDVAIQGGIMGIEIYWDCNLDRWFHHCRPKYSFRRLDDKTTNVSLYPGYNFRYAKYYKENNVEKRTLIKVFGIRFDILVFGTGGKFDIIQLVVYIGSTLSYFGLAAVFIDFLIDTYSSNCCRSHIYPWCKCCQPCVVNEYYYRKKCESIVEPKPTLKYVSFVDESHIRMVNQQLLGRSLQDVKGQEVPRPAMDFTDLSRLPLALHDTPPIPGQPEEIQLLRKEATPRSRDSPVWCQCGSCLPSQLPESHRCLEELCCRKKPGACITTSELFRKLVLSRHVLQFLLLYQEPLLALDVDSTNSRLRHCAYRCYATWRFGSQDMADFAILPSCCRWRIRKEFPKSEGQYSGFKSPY

Sequence of P2X5 (Q93086 whole entry, species assumed): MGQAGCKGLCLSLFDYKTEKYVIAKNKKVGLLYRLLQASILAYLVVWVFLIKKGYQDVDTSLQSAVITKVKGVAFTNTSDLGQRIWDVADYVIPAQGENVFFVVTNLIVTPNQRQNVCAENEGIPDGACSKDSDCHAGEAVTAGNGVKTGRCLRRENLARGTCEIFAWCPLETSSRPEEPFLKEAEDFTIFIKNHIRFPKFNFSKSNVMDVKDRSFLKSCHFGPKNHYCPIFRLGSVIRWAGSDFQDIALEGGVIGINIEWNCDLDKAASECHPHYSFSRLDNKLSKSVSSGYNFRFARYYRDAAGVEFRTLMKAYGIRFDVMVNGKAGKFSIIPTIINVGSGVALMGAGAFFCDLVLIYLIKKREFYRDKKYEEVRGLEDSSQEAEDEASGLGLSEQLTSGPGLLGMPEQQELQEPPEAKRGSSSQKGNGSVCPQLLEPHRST
Sequence of P2X6 (O15547 whole entry, species assumed): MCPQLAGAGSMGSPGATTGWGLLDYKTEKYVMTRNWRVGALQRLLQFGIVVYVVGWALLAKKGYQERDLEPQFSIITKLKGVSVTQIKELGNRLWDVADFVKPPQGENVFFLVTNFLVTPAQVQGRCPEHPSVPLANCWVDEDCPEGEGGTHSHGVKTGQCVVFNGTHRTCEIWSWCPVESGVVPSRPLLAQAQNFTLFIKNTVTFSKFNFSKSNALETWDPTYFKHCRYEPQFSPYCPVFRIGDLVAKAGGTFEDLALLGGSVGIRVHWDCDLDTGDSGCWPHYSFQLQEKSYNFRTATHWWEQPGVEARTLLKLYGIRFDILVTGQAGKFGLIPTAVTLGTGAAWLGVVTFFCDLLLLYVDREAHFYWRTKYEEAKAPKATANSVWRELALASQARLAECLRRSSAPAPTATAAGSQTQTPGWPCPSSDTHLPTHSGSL

In the case of `Cc1cc(-c2ccc(/N=N/c3ccc4c(S(=O)(=O)O)cc(S(=O)(=O)O)c(N)c4c3O)c(C)c2)ccc1/N=N/c1ccc2c(S(=O)(=O)O)cc(S(=O)(=O)O)c(N)c2c1O` [Evans Blue], the IC50 [1] is given as 1400 µM, the IC50 [2] is given as 1 to 400 µM and the IC50 [3] is given as 1400 µM. For the same compound, the IC50 [4] was 1 to 400 µM, the IC50 [5] was 1 to 400 µM and the IC50 [6] was 1 to 400 µM. The IC50 [7] was 1 to 400 µM.
